Assays:
PDE2 = PDE2 (Homo sapiens, UniProt O00408); assay: PDE2 enzyme assay; format: biochemical
Description: (§1) PDE1, 2, 3 and 5 enzyme assays were prepared as described by Hidaka and Asano. Biochem. Biophys. Acta., 1976, 429:485; see also Nicholsen et al., Trends Pharmaco. Sci., 1991, 12:19. The PDE6 enzyme assay was prepared according to Baehr et al., J. Biol. Chem., 1979, 254:11669 and Gillespie et al., Mol. Pharm., 1989, 36: 773. The PDE7 enzyme assay was prepared according to Bloom and Beavo. Proc. Natl. Acad. Sci. USA, 1996, 93:14188-92.

PDE5 = PDE5 (Homo sapiens, UniProt O76074); assay: PDE5 enzyme assay; format: biochemical
Description: as §1

PDE6 = PDE6 enzyme assay; format: biochemical; settings: at 10 μM
Description: as §1

Alanine Aminotransferase [1] = assay: ALT levels in PALACE 1, 2, and 3 clinical studies; format: in vivo, human
From the text: (§2) Apremilast was studied in Phase 3 trials in both psoriatic arthritis and psoriasis patient populations and a Phase 2 trial in rheumatoid arthritis patients on background methotrexate. […] The improvement in mild baseline liver function test abnormalities has been observed with apremilast daily use without any prescribed changes in physical activity, social or dietary habits. The majority of the patient populations in both the psoriatic arthritis and psoriasis studies were overweight with the mean BMI for subjects greater than or equal to 30, more than half were consuming alcoholic beverages regularly, approximately 60% were taking methotrexate at an average dose of […], and 70% were using non-steroidal anti-inflammatory drugs (NSAIDs). […] During the course of the study, there was observed a higher proportion of subjects in the apremilast treatment groups (both 20 mg BID and 30 mg BID) with normal LFTs (i.e. normal levels of ALT and AST) at subsequent placebo-controlled study visits at week 4, week 16, and week 24 (See Tables 1 to 10 from PALACE 1, 2, and 3 studies).

[2] = system: Aspartate Aminotransferase; assay: AST levels in PALACE 1, 2, and 3 clinical studies; format: in vivo, human
From the text: as §2

Alanine Aminotransferase [3] = assay: ALT levels in PSOR-008 and PSOR-009 (plaque psoriasis); format: in vivo, human; settings: for ALT High, % of patients / ALT Low, % of patients / ALT Normal, % of patients: Week 16, 30 mg BID
Description: Apremilast was studied in Phase 3 trials in patients with moderate to severe plaque psoriasis. […] The improvement in mild baseline liver function test abnormalities has been observed with apremilast daily use without any prescribed changes in physical activity, social or dietary habits. During the course of the study, there was observed a higher proportion of subjects in the apremilast treatment group (30 mg BID) with normal LFTs (i.e. normal levels of ALT and AST) at subsequent placebo-controlled study visits at week 16. See Tables 11 to 16 from PSOR-008 and PSOR-009 studies.

[4] = system: patients with moderate to severe plaque psoriasis; assay: Pruritus in ESTEEM 2; format: in vivo, human; settings: Week 16, 30 mg BID
Description: Patients were randomized with Apremilast in an amount of 30 mg twice per day or placebo for the first 16 weeks, and from Weeks 16 to 32, all patients received Apremilast in an amount of 30 mg twice per day.

[5] = Baseline High, Week 24, 20 mg BID
[6] = Baseline High, Week 24, 30 mg BID
[7] = Baseline Normal, Week 24, 20 mg BID
[8] = Baseline Normal, Week 24, 30 mg BID
[9] = Baseline Total, Week 24, 20 mg BID
[10] = Baseline Total, Week 24, 30 mg BID
[11] = 30 BID, end of treatment (week 16)

PDE2, sequence (O00408 whole entry): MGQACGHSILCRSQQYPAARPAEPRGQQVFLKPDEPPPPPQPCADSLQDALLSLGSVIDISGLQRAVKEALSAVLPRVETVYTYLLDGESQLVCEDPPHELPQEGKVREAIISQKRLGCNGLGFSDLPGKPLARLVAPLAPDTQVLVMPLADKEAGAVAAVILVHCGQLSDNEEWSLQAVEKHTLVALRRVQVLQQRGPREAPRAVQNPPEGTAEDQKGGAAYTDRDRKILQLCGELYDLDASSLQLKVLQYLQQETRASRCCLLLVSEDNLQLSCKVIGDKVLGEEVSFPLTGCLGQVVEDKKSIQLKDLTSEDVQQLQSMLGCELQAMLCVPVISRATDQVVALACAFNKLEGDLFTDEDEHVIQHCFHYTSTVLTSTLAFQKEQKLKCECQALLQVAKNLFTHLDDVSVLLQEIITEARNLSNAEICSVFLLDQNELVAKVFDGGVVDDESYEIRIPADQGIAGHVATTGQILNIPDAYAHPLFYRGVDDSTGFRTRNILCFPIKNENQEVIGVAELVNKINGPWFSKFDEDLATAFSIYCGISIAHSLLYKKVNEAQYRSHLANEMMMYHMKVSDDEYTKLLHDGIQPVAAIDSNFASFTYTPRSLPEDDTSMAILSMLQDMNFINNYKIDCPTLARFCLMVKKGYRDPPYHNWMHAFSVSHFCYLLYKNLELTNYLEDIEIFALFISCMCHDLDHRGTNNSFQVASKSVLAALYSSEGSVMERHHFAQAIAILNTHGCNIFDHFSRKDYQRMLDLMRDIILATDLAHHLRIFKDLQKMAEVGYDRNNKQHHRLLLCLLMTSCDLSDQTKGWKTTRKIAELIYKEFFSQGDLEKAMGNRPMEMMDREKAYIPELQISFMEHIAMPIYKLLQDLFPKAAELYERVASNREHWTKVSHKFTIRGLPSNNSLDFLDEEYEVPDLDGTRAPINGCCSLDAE

CCOc1cc([C@@H](CS(C)(=O)=O)N2C(=O)c3cccc(NC(C)=O)c3C2=O)ccc1OC [Apremilast, (+)-2-[1-(3-ethoxy-4-methoxyphenyl)-2-methylsulfonylethyl]-4-acetylaminoisoindoline-1,3-dione]
inhibition at 10 µM (PDE2): 6%
inhibition at 10 µM (PDE5): 3%
% inhibition PDE6 (PDE6): −6%
ALT High to Normal, percent of patients (Alanine Aminotransferase [1]; 20 BID, end of treatment): 55.3%
ALT Net Benefit (Alanine Aminotransferase [1]; 20 BID, end of treatment): 40.6%
ALT Normal to High, percent of patients (Alanine Aminotransferase [1]; 20 BID, end of treatment): 4.5%
ALT High to Normal, Difference between Placebo and APR 30 BID (Alanine Aminotransferase [1]; 30 BID, end of treatment): 44.4%
ALT High to Normal, percent of patients (Alanine Aminotransferase [1]; 30 BID, end of treatment): 74.4%
ALT Net Benefit (Alanine Aminotransferase [1]; 30 BID, end of treatment): 51.8%
ALT Net Benefit, Difference between Placebo and APR 30 BID (Alanine Aminotransferase [1]; 30 BID, end of treatment): 36.8%
ALT Normal to High, Difference between Placebo and APR 30 BID (Alanine Aminotransferase [1]; 30 BID, end of treatment): −2.8%
ALT Normal to High, percent of patients (Alanine Aminotransferase [1]; 30 BID, end of treatment): 4.4%
ALT High, % of patients (Alanine Aminotransferase [1]; [5]): 44.7%
ALT Low, % of patients (Alanine Aminotransferase [1]; [5]): 0.0%
ALT Normal, % of patients (Alanine Aminotransferase [1]; [5]): 55.3%
ALT High, % of patients (Alanine Aminotransferase [1]; [6]): 25.6%
ALT Low, % of patients (Alanine Aminotransferase [1]; [6]): 0.0%
ALT Normal, % of patients (Alanine Aminotransferase [1]; [6]): 74.4%
ALT High, % of patients (Alanine Aminotransferase [1]; [7]): 4.5%
ALT Low, % of patients (Alanine Aminotransferase [1]; [7]): 0.0%
ALT Normal, % of patients (Alanine Aminotransferase [1]; [7]): 95.5%
ALT High, % of patients (Alanine Aminotransferase [1]; [8]): 4.4%
ALT Low, % of patients (Alanine Aminotransferase [1]; [8]): 0.0%
ALT Normal, % of patients (Alanine Aminotransferase [1]; [8]): 95.6%
ALT High, % of patients (Alanine Aminotransferase [1]; [9]): 8.9%
ALT Low, % of patients (Alanine Aminotransferase [1]; [9]): 0.0%
ALT Normal, % of patients (Alanine Aminotransferase [1]; [9]): 91.1%
ALT High, % of patients (Alanine Aminotransferase [1]; [10]): 6.3%
ALT Low, % of patients (Alanine Aminotransferase [1]; [10]): 0.0%
ALT Normal, % of patients (Alanine Aminotransferase [1]; [10]): 93.7%
Baseline High ALT: High % (Alanine Aminotransferase [1]; Week 4, 20 mg BID): 54.2%
Baseline High ALT: Normal % (Alanine Aminotransferase [1]; Week 4, 20 mg BID): 45.8%
Baseline High ALT: Normal % difference from Placebo (Alanine Aminotransferase [1]; Week 4, 20 mg BID): 8.7%
Baseline High ALT: High % (Alanine Aminotransferase [1]; Week 4, 30 mg BID): 41.1%
Baseline High ALT: Normal % (Alanine Aminotransferase [1]; Week 4, 30 mg BID): 58.9%
Baseline High ALT: Normal % difference from Placebo (Alanine Aminotransferase [1]; Week 4, 30 mg BID): 21.8%
Baseline High ALT: High % (Alanine Aminotransferase [1]; Week 16, 20 mg BID): 36.8%
Baseline High ALT: Normal % (Alanine Aminotransferase [1]; Week 16, 20 mg BID): 63.2%
Baseline High ALT: Normal % difference from Placebo (Alanine Aminotransferase [1]; Week 16, 20 mg BID): 12.4%
Baseline High ALT: High % (Alanine Aminotransferase [1]; Week 16, 30 mg BID): 32.7%
Baseline High ALT: Normal % (Alanine Aminotransferase [1]; Week 16, 30 mg BID): 67.3%
Baseline High ALT: Normal % difference from Placebo (Alanine Aminotransferase [1]; Week 16, 30 mg BID): 16.5%
Baseline High ALT: High % (Alanine Aminotransferase [1]; Week 24, 20 mg BID): 45.1%
Baseline High ALT: Normal % (Alanine Aminotransferase [1]; Week 24, 20 mg BID): 54.9%
Baseline High ALT: Normal % difference from Placebo (Alanine Aminotransferase [1]; Week 24, 20 mg BID): 14.9%
Baseline High ALT: High % (Alanine Aminotransferase [1]; Week 24, 30 mg BID): 23.8%
Baseline High ALT: Normal % (Alanine Aminotransferase [1]; Week 24, 30 mg BID): 76.2%
Baseline High ALT: Normal % difference from Placebo (Alanine Aminotransferase [1]; Week 24, 30 mg BID): 36.2%
AST High to Normal, percent of patients ([2]; 20 BID, end of treatment): 60.9%
AST Net Benefit ([2]; 20 BID, end of treatment): 32.6%
AST Normal to High, percent of patients ([2]; 20 BID, end of treatment): 5.0%
AST High to Normal, Difference between Placebo and APR 30 BID ([2]; 30 BID, end of treatment): 13.3%
AST High to Normal, percent of patients ([2]; 30 BID, end of treatment): 73.3%
AST Net Benefit ([2]; 30 BID, end of treatment): 48.9%
AST Net Benefit, Difference between Placebo and APR 30 BID ([2]; 30 BID, end of treatment): 23.9%
AST Normal to High, Difference between Placebo and APR 30 BID ([2]; 30 BID, end of treatment): −6.4%
AST Normal to High, percent of patients ([2]; 30 BID, end of treatment): 3.8%
AST High, % of patients [2, 5]: 39.1%
AST Low, % of patients [2, 5]: 0.0%
AST Normal, % of patients [2, 5]: 60.9%
AST High, % of patients [2, 6]: 26.7%
AST Low, % of patients [2, 6]: 0.0%
AST Normal, % of patients [2, 6]: 73.3%
AST High, % of patients [2, 7]: 5.0%
AST Low, % of patients [2, 7]: 0.0%
AST Normal, % of patients [2, 7]: 95.0%
AST High, % of patients [2, 8]: 3.8%
AST Low, % of patients [2, 8]: 0.0%
AST Normal, % of patients [2, 8]: 96.2%
AST High, % of patients [2, 9]: 6.8%
AST Low, % of patients [2, 9]: 0.0%
AST Normal, % of patients [2, 9]: 93.2%
AST High, % of patients [2, 10]: 5.4%
AST Low, % of patients [2, 10]: 0.0%
AST Normal, % of patients [2, 10]: 94.6%
Baseline High AST: High % ([2]; Week 4, 20 mg BID): 38.6%
Baseline High AST: Normal % ([2]; Week 4, 20 mg BID): 61.4%
Baseline High AST: Normal % difference from Placebo ([2]; Week 4, 20 mg BID): 9%
Baseline High AST: High % ([2]; Week 4, 30 mg BID): 42.2%
Baseline High AST: Normal % ([2]; Week 4, 30 mg BID): 57.8%
Baseline High AST: Normal % difference from Placebo ([2]; Week 4, 30 mg BID): 5.4%
Baseline High AST: High % ([2]; Week 16, 20 mg BID): 38.5%
Baseline High AST: Normal % ([2]; Week 16, 20 mg BID): 61.5%
Baseline High AST: Normal % difference from Placebo ([2]; Week 16, 20 mg BID): −4.3%
decrease in the number of patients with normal levels of AST compared to the placebo group ([2]; Week 16, 20 mg BID, stated as a decrease): 4.3%
Baseline High AST: High % ([2]; Week 16, 30 mg BID): 25.0%
Baseline High AST: Normal % ([2]; Week 16, 30 mg BID): 75.0%
Baseline High AST: Normal % difference from Placebo ([2]; Week 16, 30 mg BID): 9.2%
Baseline High AST: High % ([2]; Week 24, 20 mg BID): 44.4%
Baseline High AST: Normal % ([2]; Week 24, 20 mg BID): 55.6%
Baseline High AST: Normal % difference from Placebo ([2]; Week 24, 20 mg BID): 5.6%
Baseline High AST: High % ([2]; Week 24, 30 mg BID): 24.2%
Baseline High AST: Normal % ([2]; Week 24, 30 mg BID): 75.8%
Baseline High AST: Normal % difference from Placebo ([2]; Week 24, 30 mg BID): 25.8%
ALT High to Normal, percent of patients (Alanine Aminotransferase [3]; [11]): 57.1%
ALT Net Benefit (Alanine Aminotransferase [3]; [11]): 53.7%
ALT Normal to High, percent of patients (Alanine Aminotransferase [3]; [11]): 3.7%
ALT High to Normal, Difference (APR 30 BID vs Placebo) (Alanine Aminotransferase [3]; 30 BID, week 16): 3.1%
ALT Net Benefit, Difference (APR 30 BID vs Placebo) (Alanine Aminotransferase [3]; 30 BID, week 16): 17.9%
ALT Normal to High, Difference (APR 30 BID vs Placebo) (Alanine Aminotransferase [3]; 30 BID, week 16): −2.1%
ALT High to Normal, Difference (APR 30 BID vs Placebo) (Alanine Aminotransferase [3]; 30 BID, week 16, listed as APR): 3.1%
ALT High, % of patients (Alanine Aminotransferase [3]; Baseline High): 42.9%
ALT Low, % of patients (Alanine Aminotransferase [3]; Baseline High): 0.0%
ALT Normal, % of patients (Alanine Aminotransferase [3]; Baseline High): 57.1%
ALT High, % of patients (Alanine Aminotransferase [3]; Baseline Normal): 3.7%
ALT Low, % of patients (Alanine Aminotransferase [3]; Baseline Normal): 0.0%
ALT Normal, % of patients (Alanine Aminotransferase [3]; Baseline Normal): 96.3%
ALT High, % of patients (Alanine Aminotransferase [3]; Baseline Total): 7.8%
ALT Low, % of patients (Alanine Aminotransferase [3]; Baseline Total): 0.0%
ALT Normal, % of patients (Alanine Aminotransferase [3]; Baseline Total): 92.2%
Change in Pruritus Visual Analog Scale (mm ± SD) [4]: −33.5 (±35.46) mm
